# Values quoted from earlier work, collected in patent US6770262B2, “Nasal administration of agents for the treatment of gastroparesis” (priority 2000, dated 2004).
# Like-named read-outs stand apart in the source and are kept apart here.
# Settings: for onset of action: injection form
structure (smiles),measurement,setting,value
CCN(CC)CCNC(=O)c1cc(Cl)c(N)cc1OC [Metoclopramide],time of peak plasma concentrations,after a single oral dose,1 to 2 h
same,onset of action,intramuscular administration,10 to 15 min
same,onset of action,intravenous administration,1 to 3 min
